Experimental data reported in patent publication US20210345614A1, “APPLICATION OF 7-CARBOXYBENZO[1,2,3]THIADIAZOLE AMIDES AS PLANT STIMULANTS” (ADAM MICKIEWICZ UNIVERSITY FOUNDATION, priority 2015, published 2021).

Tested on: Pyrenophora teres
Experiment: Field test on barley, fungal infection by Pyrenophora teres
Type: in vivo, Hordeum vulgare (spring)
Procedure: The test was conducted on a variety of barley Hordeum vulgare (spring). As such, six applications of the active substance solution was made. The study was conducted on fields of about 25 m^2 in quadruplicate for each combination tested. […] (with the addition of commercial adjuvant) followed by treatment with common fungicide (tebukonazole in formulation containing 250 g of active substance to be applied per 1 ha) in reducing infection of fungi Pyrenophora teres in barley (Hordeum vulgare (spring)) was performed. […] Six applications of the active substance BTHWA solution were made. As a control, one application of fungicide was performed at the time as indicated on the product label. The study was conducted on fields of about 25 m^2 in quadruplicate for each combination tested. […] The fungicide was applied in an amount of 33% its recommended dose (83 g/ha). Six applications of the active substance BTHWA solution were made. As a control, one application of fungicide was performed at the time as indicated on the product label. The study was conducted on fields of about 25 m^2 in quadruplicate for each combination tested.

[1] = Example 29: tebukonazole 1x 250 g/ha alone, or BTHWA 20 mg/L (six applications) + tebukonazole 1x 125 g/ha
[2] = Example 30: tebukonazole 1x 250 g/ha alone, or BTHWA 20 mg/L (six applications) + tebukonazole 1x, table prints 125 g/ha, text 83 g/ha

Question: How did the “% efficacy” value [1] turn out when `CC(C)(C)C(O)(CCc1ccc(Cl)cc1)Cn1cncn1` (racemic) [tebukonazole, (RS)-1-(4-chlorophenyl)-4,4-dimethyl-3-(1H, 1,2,4-triazol-1-ylmethyl)pentan-3-ol] was run?
Answer: Its value is 90.87%.

Question: What about the “% of infection” value [1] of the same compound?
Answer: The value was 6.00%.

Question: What about the “% efficacy” value [2] of the same compound?
Answer: Its value is 90.87%.

Question: And the “% of infection” value [2]?
Answer: The value was 6.00%.
